Source: patent US20080171783A1, “COMPOSITIONS AND METHODS FOR TREATING HYPERPROLIFERATIVE DISEASE” (Migenix Inc., priority 2006, published 2008)
Where two headings read alike, the source gives them in different places.

Columns and labels:
Caco-2 = experiment: Cell viability by XTT; details: for Percentage of Cell Control: Caco-2, single dose 10 μM, four days
Protocol: (§1) Compounds were solubilized at […] in DMSO and were stored at −20° C. Test compounds were initially tested at a single concentration of 10 μM and a subset of test compounds were further tested in selected cell lines using a six concentration dose response curve.
(§2) Cell Preparation Cancer cell lines were passaged in T-75 flasks prior to use in the assay in cell culture medium recommended by the ATCC (American Type Culture Collection; Table 6). On the day preceding the assay, the cells were split 1:2 to assure they were in an exponential growth phase at the time of compound treatment. Total cell and viability quantification was performed using a hemocytometer and Trypan Blue dye exclusion. […] The cells were resuspended at the appropriate cell per mL (Table 6) in tissue culture medium and added to the microtitre plates in a volume of 100 μL. Colon cell lines were incubated overnight at 37° C./5% CO2 to allow for cell adherence to the plates.
(§3) Plate Format: Each plate contains cell control wells (cells only), drug calorimetric control wells (drug only) as well as experimental wells (drug plus cells). Samples were tested in triplicate at a concentration of 10 μM and five half-logarithmic dilutions.
(§4) Cell Viability by XTT: Following incubation at 37° C. in a 5% CO2 incubator for four days, the test plates were stained with the tetrazolium dye XTT (2,3-bis(2-methoxy-4-nitro-5-sulfophenyl)-5-[(phenylamino)carbonyl]-2H-tetrazolium hydroxide). XTT-tetrazolium was metabolized by the mitochondrial enzymes of metabolically active cells to a soluble formazan product. XTT solution was prepared daily as a stock of 1 mg/mL in RPMI1640. Phenazine methosulfate (PMS) solution was prepared at 0.15 mg/mL in phosphate buffered saline (PBS) and stored in the dark at −20° C. XTT/PMS stock was prepared immediately before use by adding 40 μL of PMS per mL of XTT solution. Fifty (50) microlitres of XTT/PMS was added to each well of the plate and the plate was reincubated for 4 hours at 37° C. Plates were sealed with adhesive plate sealers and shaken gently or inverted several times to mix the soluble formazan product and the plate was read spectrophotometrically at 450/650 nm with a Molecular Devices Vmax plate reader. […] An Average Response Factor (ARF) was calculated for each compound by averaging the ten Percentage of Control values for the cell lines. […] Deviations below 100% control indicate activity. The concentration of each tested compound is 10 μM.

THP-1 = experiment: Cell viability by XTT; details: for Percentage of Cell Control: THP-1, single dose 10 μM, four days
Protocol: as §1, §2, §3, §4

Jurkat = experiment: Cell viability by XTT; details: for Percentage of Cell Control: single dose 10 μM, four days
Protocol: as §1, §2, §3, §4

HT29 = experiment: cells; details: for Percentage of Cell Control: HT29, single dose 10 μM, four days
Protocol: as §1, §2, §3, §4

Calf polymerase alpha = target: T1, Calf polymerase alpha (Bos taurus, UniProt A0AAA9TD94); experiment: Calf polymerase alpha inhibition (Replizyme kit); format: biochemical; details: at 10 μM, single point screening
T1 construct: purchased Replizyme Ltd (Heslington, York, UK)
T1 sequence (A0AAA9TD94 1-1441): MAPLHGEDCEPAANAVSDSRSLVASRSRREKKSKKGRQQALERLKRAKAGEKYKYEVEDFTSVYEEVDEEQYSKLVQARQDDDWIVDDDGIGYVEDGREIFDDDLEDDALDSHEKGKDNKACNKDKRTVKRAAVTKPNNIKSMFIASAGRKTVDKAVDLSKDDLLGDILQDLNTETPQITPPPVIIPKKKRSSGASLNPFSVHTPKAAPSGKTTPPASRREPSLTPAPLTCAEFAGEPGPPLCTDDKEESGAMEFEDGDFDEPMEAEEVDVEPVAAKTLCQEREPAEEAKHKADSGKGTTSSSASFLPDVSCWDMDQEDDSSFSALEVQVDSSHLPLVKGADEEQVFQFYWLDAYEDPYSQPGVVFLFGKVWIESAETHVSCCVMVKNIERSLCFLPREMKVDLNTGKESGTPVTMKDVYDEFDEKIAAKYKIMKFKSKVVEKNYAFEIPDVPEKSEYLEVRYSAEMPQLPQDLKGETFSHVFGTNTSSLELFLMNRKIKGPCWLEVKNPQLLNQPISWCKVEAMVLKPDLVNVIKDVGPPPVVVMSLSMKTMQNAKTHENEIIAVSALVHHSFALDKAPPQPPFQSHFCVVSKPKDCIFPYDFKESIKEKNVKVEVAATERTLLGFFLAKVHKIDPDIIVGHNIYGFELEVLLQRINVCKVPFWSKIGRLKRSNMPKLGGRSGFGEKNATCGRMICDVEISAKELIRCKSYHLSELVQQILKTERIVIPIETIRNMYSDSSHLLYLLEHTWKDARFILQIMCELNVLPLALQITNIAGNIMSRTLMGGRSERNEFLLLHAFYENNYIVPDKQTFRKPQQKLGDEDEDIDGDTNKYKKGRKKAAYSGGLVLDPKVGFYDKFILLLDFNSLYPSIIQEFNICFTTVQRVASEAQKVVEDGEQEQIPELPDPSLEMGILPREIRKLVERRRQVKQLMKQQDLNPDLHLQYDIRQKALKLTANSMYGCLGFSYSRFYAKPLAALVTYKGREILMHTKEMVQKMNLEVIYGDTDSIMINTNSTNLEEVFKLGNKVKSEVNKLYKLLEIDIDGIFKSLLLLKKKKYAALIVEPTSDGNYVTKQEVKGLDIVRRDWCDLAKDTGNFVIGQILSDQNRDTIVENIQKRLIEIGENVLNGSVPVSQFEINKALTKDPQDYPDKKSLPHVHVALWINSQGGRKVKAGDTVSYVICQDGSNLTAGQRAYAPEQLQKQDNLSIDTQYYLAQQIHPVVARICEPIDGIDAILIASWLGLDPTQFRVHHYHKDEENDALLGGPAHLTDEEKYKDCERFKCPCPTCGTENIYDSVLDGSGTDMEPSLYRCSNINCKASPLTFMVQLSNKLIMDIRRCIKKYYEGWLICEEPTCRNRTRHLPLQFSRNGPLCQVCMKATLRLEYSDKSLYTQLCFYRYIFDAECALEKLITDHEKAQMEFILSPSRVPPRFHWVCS
Protocol: Calf polymerase alpha and human polymerase alpha investigations were performed with a kit available from Replizyme Ltd (Heslington, York, UK).

[1] = system: 5 Leukemia and 5 Colon Cancer Cell Lines; experiment: Cell viability by XTT, cell line panel; format: cell-based; details: for Range (Percentage of Control over the same 10 cell lines): lowest to highest of the ten cell lines
Outline: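 Leukemia and colon cancer lines in exponential growth were exposed to compounds for four days at 37 °C/5% CO2, with colon lines allowed overnight adherence beforehand. Viability read by XTT/PMS reduction (4 h) at 450/650 nm; percent of control at 10 μM averaged over ten lines as ARF.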

HL-60 = experiment: Cell viability by XTT; format: cell-based; details: HL-60, single dose 10 μM, four days
Protocol: as §1, §2, §3, §4

HCT-15 = experiment: Cell viability by XTT; format: cell-based; details: HCT-15, single dose 10 μM, four days
Protocol: as §1, §2, §3, §4

Row | Structure (SMILES) | Percentage of Cell Control (Caco-2) [%] | CC50 (Caco-2; Homo sapiens, Caco-2, read-out: Activity (TC50)) [µM] | CC50 (THP-1; Homo sapiens, THP-1, read-out: Activity (TC50)) [µM] | Percentage of Cell Control (THP-1) [%] | CC50 (Jurkat; Homo sapiens, read-out: Activity (TC50)) [µM] | Percentage of Cell Control (Jurkat) [%] | Percentage of Cell Control (HT29) [%] | CC50 (HT29; Homo sapiens, HT-29, read-out: Activity (TC50)) [µM] | inhibition at 10 µM (Calf polymerase alpha) [%] | Range (Percentage of Control over the same 10 cell lines) ([1]; 10 μM) [%] | viability at 10 µM ([1]; average of the ten Percentage of Control values, read-out: ARF (Average Response Factor, Average Percentage of Control)) [%] | Percentage of Cell Control (HL-60) [%] | Percentage of Cell Control (HCT-15) [%] | CC50 (Caco-2; read-out: Activity (TC50), Caco-2, six concentration dose response, Table 9) [µM] | CC50 (THP-1; read-out: Activity (TC50), THP-1, six concentration dose response, Table 9) [µM] | CC50 (Jurkat; read-out: Activity (TC50), six concentration dose response, Table 9) [µM] | % Inhibition (Calf polymerase alpha) [%] | ARF (Average Response Factor, Average Percentage of Control) ([1]; 10 μM, average of the ten Percentage of Control values) [%]
1 | NCCCC[C@H](NC(=O)OCC1c2ccccc2-c2ccccc21)C(=O)Nc1ccc(OCc2ccccc2)c(Cl)c1 [Compound 210, (S)-[5-AMINO-1-(4-BENZYLOXY-3-CHLORO-PHENYLCARBAMOYL)-PENTYL]-CARBAMIC ACID 9H-FLUOREN-9-YLMETHYL ESTER] | 2.4 | 10 | 7.7 | 0 | 5.4 | 9.3 | 0 | 9.8 | 104 | 0 to 94.0 | 41.1 | 0.4 | 71.8 | – | – | – | – | –
2 | Cc1ccc(NC(=O)[C@H](CCCCN)NCc2ccc(NC(=O)Nc3ccncc3)cc2)cc1 [Compound 262, (S)-6-AMINO-2-[4-(3-PYRIDIN-4-YL-UREIDO)-BENZYLAMINO]-HEXANOIC ACID P-TOLYLAMIDE] | 21.6 | – | – | 49.4 | – | 3.1 | 63.8 | – | – | 3.1 to 121.1 | – | 53.1 | 75 | 8.7 | 7.9 | 5.5 | 102 | 69.4
